{
  "source": "patent US6399649B1",
  "about": "“Compositions and methods for the treatment of chronic lymphocytic leukemia” (Boston Medical Center Corporation, priority 1998, dated 2002)",
  "key": {"CLL cells": {"tested_on": "CLL cells", "assay": "Hoechst 33342 apoptosis assay, CLL cells", "format": "cell-based, human", "details": "for percentage of apoptotic cells: 10 uMol/L rolipram", "experimental": "(§1) Hoechst 33342 was dissolved in water and frozen at 33 mg/mL at −20° C. One million cells/well were incubated in duplicate or triplicate in 48 well tissue culture plates (Costar, Cambridge, Mass.) with or without drug treatment for […] in 1 mL of culture media. Cells were transferred to 12×75 mm polystyrene Falcon® 2054 FACS tubes (Becton Dickinson Labware, Lincoln Park, N.J.) and incubated for ten minutes at 37° C. with Hoechst 33342 at a final concentration of […]. 23 Cells were stored on ice until analysis on a FACS Vantage flow cytometer (Becton Dickinson, San Jose, Calif.). Hoechst 33342 dye fluorescence was excited with a UV laser and detected using a 450 bandpass filter; Data was analyzed using Cellquest software (Becton Dickinson, San Jose, Calif.).\nAs a more quantitative analysis of CLL apoptosis, we utilized a flow cytometry method in which apoptotic cells are distinguished both by their reduced size (FSC) and their increased uptake of the lipophilic UV fluorescent dye Hoechst 33342 (FL-4) when the intact, heterogeneous cell population is incubated with a low concentration of the dye (0.25 ug/mL) for 10 minutes at 37° C. Specifically, cells were cultured for 72 hours in media (1), 1uMol/L rolipram (2), 40 uMol/L forskolin (3) or a combination of the two drugs (FIG. 6). The abcissa reflects forward light scatter and the ordinate Hoechst 33342 fluorescence. Apoptotic cells are characterized by reduced forward light scatter and increased Hoechst 33342 fluorescence. Previous reports of cAMP induced lymphoid apoptosis have noted that this form of programmed cell death may take 48 to 72 hours to develop maximally. […] CLL cells were cultured for 72 hours in one mL of media with the indicated concentration of rolipram with (black bars) or without (stippled bars) the addition of 40 uMol/L forskolin."}, "[1]": {"tested_on": "magnetic bead purified CD19+B cells", "assay": "Hoechst 33342 apoptosis assay, CD19+ B cells", "format": "cell-based, human", "experimental": "as §1\nThis example describes the effect of PDE4 inhibition on normal B and T cells. […] Specifically, one million WMC were cultured with the indicated concentration of rolipram with or without the addition of 40 uMol/L forskolin for 72 hours in the presence of 2 units/mL IL-2. Apoptosis was determined by Hoechst 33342 flow cytometry. […] In contrast, magnetic bead purified CD19+B cells were sensitive to rolipram, although the increment in apoptosis observed was superimposed on a high basal apoptosis rate that has previously been reported in cultured human B cells. Given that crosslinking of cell surface immunoglobulin on resting B cells has been reported to reduce basal and forskolin-induced apoptosis in culture, we also stimulated CD19+ cells with a polyclonal Fab′2 anti-IgM/IgG reagent 30 minutes prior to the addition of the phosphodiesterase inhibitor."}, "[2]": {"details": "cited from earlier work"}, "[3]": {"tested_on": "PDE activity in CLL cells", "assay": "cAMP PDE assay on CLL cell lysates", "format": "biochemical, human", "details": "10 uMol/L", "from_the_text": "The technique of Robiesek et al., itself adapted from an assay described by Thompson and Appleman, was used in modified form. S. A. Robicsek et al., “Multiple high-affinity cAMP-phosphodiesterases in human T-lymphocytes,” Biochem. Pharmacol. 42:869 (1991). W. J. Thompson and M. M. Appleman, “Multiple cyclic nucleotide phosphodiesterase activities from rat brain,” Biochemistry 10:311 […]. 150 million purified CLL cells were pelleted and sonicated (Branson 350 Sonifier with micropit probe, output =2, 50% duty cycle) on ice in 1.0 mL of a buffer which contained 20 mMol/L Tris (pH 6.8), 1 mMol/L EDTA, aprotinin (50 u/mL), pepstatin (1 mg/mL), PMSF (1 mMol/L) and 3.75 mMol/L b-ME. Assay buffer contained 100 mMol/L Tris (pH 8.0), 20 mMol/l MgCl2, 0.2% BSA and 7.5 mMol/L b-ME. [^3H]-cAMP (NEN, Boston, Mass.) was incubated with PDE for 10 minutes at 30° C. in 20 uL volumes (10 uL of sonication buffer and 10 uL of assay buffer) which contained 0.22 units of alkaline phosphatase. 10 uMol/L rolipram or 0.2 mMol/L calcium/20 nMol/L calmodulin were added to the assay buffer as appropriate. Reactions were halted by the addition of 0.5 mL of a 1:3 slurry w/v slurry of AG1-X8 anion exchange resin and a mixture of equal volumes of water and isopropanol. […] The radiolabelled nucleosides in the supernatant were counted using Ecoscint scintillation fluid (National Diagnostics, Atlanta, Ga.). […]"}},
  "data": [
    {"smiles": "COc1ccc(C2CNC(=O)C2)cc1OC1CCCC1", "note": "(racemic) [rolipram, 4-(3-cyclopentyloxy-4-methoxyphenyl)-2-pyrrolidone]", "values": [
      {"measurement": "absolute increase in apoptotic cells", "setting": "CLL cells; 10 uMol/L, four relatively rolipram-resistant patient samples (Pt #'s 11-14)", "value": "less than 33%"},
      {"measurement": "CLL cell apoptosis", "setting": "CLL cells; 72 hour culture, rolipram dose range with or without 40 uMol/L forskolin", "value": "dose dependent increase in CLL cell apoptosis"},
      {"measurement": "apoptosis of anti-Ig stimulated CLL cells", "setting": "CLL cells; CLL cells derived from two patients", "value": "failed to protect these cells from rolipram-induced apoptosis"},
      {"measurement": "percentage of apoptotic cells", "setting": "CLL cells; Pt. 1, Rai III, basal 47, 40 uMol/L forskolin or 100 uMol/L dbcAMP, three days", "value": 80, "unit": "%"},
      {"measurement": "percentage of apoptotic cells", "setting": "CLL cells; Pt. 2, Rai IV, Drug Res. Ch, Cy, basal 18 ± 2, 40 uMol/L forskolin or 100 uMol/L dbcAMP, three days", "value": 79, "unit": "%"},
      {"measurement": "percentage of apoptotic cells", "setting": "CLL cells; Pt. 3, Rai IV, Drug Res. Ch, CH, basal 38, 40 uMol/L forskolin or 100 uMol/L dbcAMP, three days", "value": "77 ± 1", "unit": "%"},
      {"measurement": "percentage of apoptotic cells", "setting": "CLL cells; Pt. 4, Rai I, basal 31 ± 2, 40 uMol/L forskolin or 100 uMol/L dbcAMP, three days", "value": "76 ± 2", "unit": "%"},
      {"measurement": "percentage of apoptotic cells", "setting": "CLL cells; Pt. 5, Rai IV, basal 18, 40 uMol/L forskolin or 100 uMol/L dbcAMP, three days", "value": "57 ± 2", "unit": "%"},
      {"measurement": "percentage of apoptotic cells", "setting": "CLL cells; Pt. 6, Rai IV, Drug Res. Ch, basal 17 ± 4, 40 uMol/L forskolin or 100 uMol/L dbcAMP, three days", "value": "54 ± 1", "unit": "%"},
      {"measurement": "percentage of apoptotic cells", "setting": "CLL cells; Pt. 7, Rai II, Drug Res. Ch, basal 13 ± 2, 40 uMol/L forskolin or 100 uMol/L dbcAMP, three days", "value": "47 ± 2", "unit": "%"},
      {"measurement": "percentage of apoptotic cells", "setting": "CLL cells; Pt. 8, Rai 0, basal 5, 40 uMol/L forskolin, three days", "value": 46, "unit": "%"},
      {"measurement": "percentage of apoptotic cells", "setting": "CLL cells; Pt. 9, Rai IV, Drug Res. Ch, Cy, Fl, basal 4 ± 0, 40 uMol/L forskolin or 100 uMol/L dbcAMP, three days", "value": "44 ± 3", "unit": "%"},
      {"measurement": "percentage of apoptotic cells", "setting": "CLL cells; Pt. 10, Rai I, basal 11, 40 uMol/L forskolin or 100 uMol/L dbcAMP, three days", "value": "44 ± 0", "unit": "%"},
      {"measurement": "percentage of apoptotic cells", "setting": "CLL cells; Pt. 11, Rai 0, basal 24 ± 4, 40 uMol/L forskolin or 100 uMol/L dbcAMP, three days", "value": "40 ± 0", "unit": "%"},
      {"measurement": "percentage of apoptotic cells", "setting": "CLL cells; Pt. 12, Rai IV, Drug Res. Ch, Fl, 2C, basal 0 ± 4, 40 uMol/L forskolin or 100 uMol/L dbcAMP, three days", "value": "38 ± 1", "unit": "%"},
      {"measurement": "percentage of apoptotic cells", "setting": "CLL cells; Pt. 13, Rai 0, basal 2 ± 0, 40 uMol/L forskolin or 100 uMol/L dbcAMP, three days", "value": "34 ± 0", "unit": "%"},
      {"measurement": "percentage of apoptotic cells", "setting": "CLL cells; Pt. 14 (significant population of cells with prolymphocyte morphology), Rai I, basal 13 ± 0, 40 uMol/L forskolin or 100 uMol/L dbcAMP, three days", "value": "14 ± 0", "unit": "%"},
      {"measurement": "effect on doxorubicin-induced apoptosis", "setting": "CLL cells; rolipram 10 uMol/L, doxorubicin 0.03 or 0.1 uMol/L, three days", "value": "augments doxorubicin-induced apoptosis"},
      {"measurement": "effect on fludarabine-induced apoptosis", "setting": "CLL cells; rolipram 10 uMol/L, fludarabine 0.3-3.0 uMol/L, three days", "value": "augments fludarabine-induced apoptosis"},
      {"measurement": "effect on chlorambucil-induced apoptosis", "setting": "CLL cells; rolipram 10 uMol/L, three days", "value": "augments chlorambucil-induced apoptosis"},
      {"measurement": "apoptosis of anti-Ig stimulated CD19+ B cells", "setting": "[1]; polyclonal Fab'2 anti-IgM/IgG 30 minutes prior to inhibitor", "value": "markedly reduced both basal apoptosis and the sensitivity of the B cells to rolipram"},
      {"measurement": "apoptosis of CD19+ B cells", "setting": "[1]; unstimulated, high basal apoptosis rate", "value": "sensitive"},
      {"measurement": "emesis", "setting": "[2]; humans, higher dosages", "value": "emetogenic"},
      {"measurement": "tolerability", "setting": "[2]; studied as an antidepressant in humans", "value": "well tolerated"},
      {"measurement": "PDE activity in CLL cells", "setting": "[3]", "value": "inhibited"}
    ]}
  ]
}
